# Patent publication US11485737B2, “Diaryl substituted 5,5-fused ring compounds as C5aR inhibitors” (CHEMOCENTRYX, INC., priority 2017, dated 2022)
# Target: T1, C5aR (Homo sapiens, UniProt P21730)
# T1 construct: U937 cells are a monocytic cell line which express C5aR; host or cells: U937 cells (cAMP-treated overnight)
# T1 sequence (P21730 1-350): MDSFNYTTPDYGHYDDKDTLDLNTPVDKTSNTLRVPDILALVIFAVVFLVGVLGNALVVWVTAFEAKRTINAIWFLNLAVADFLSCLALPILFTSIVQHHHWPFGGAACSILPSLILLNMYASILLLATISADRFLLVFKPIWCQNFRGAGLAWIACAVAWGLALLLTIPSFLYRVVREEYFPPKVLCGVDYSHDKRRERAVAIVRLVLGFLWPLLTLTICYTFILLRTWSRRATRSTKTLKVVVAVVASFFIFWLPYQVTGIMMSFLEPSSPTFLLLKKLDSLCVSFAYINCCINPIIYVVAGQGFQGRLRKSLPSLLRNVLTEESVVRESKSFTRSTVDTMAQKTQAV
# Experiment: Chemotaxis assay using U937 cells (C5a-induced migration)
# Type: cell-based
# Details: chemotaxis (migration) of U937 cells towards C5a; read-out: Mig IC50
# Procedure: U937 cells are a monocytic cell line which express C5aR, and are available from ATCC (VA). These cells were cultured as a suspension in RPMI-1640 medium supplemented with 2 mM L-glutamine, 1.5 g/L sodium bicarbonate, 4.5 g/L glucose, 10 mM HEPES, 1 mM sodium pyruvate, and 10% FBS. Cells were grown under 5% CO2/95% air, 100% humidity at 37° C. and subcultured twice weekly at 1:6 (cells were cultured at a density range of 1×10^5 to 2×10^6 cells/mL) and harvested at 1×10^6 cells/mL. Prior to assay, cells are treated overnight with 0.5 mM of cyclic AMP (Sigma, OH) and washed once prior to use. cAMP treated U937 cells can be used in C5aR ligand binding and functional assays.
# Optionally, compounds may be further assayed for their ability to inhibit chemotaxis in cells. Chemotaxis assays are performed using 5 μm pore polycarbonate, polyvinylpyrrolidone-coated filters in 96-well chemotaxis chambers (Neuroprobe; Gaithersburg, Md.) using chemotaxis buffer (Hank's balanced salt solution (HBSS) and 1% FBS). C5aR ligands (i.e., C5a, R&D Systems; Minneapolis, Minn.) are use to evaluate compound mediated inhibition of C5aR mediated migration. Other chemokines (i.e., SDF-1α; R&D Systems; Minneapolis, Minn.) are used as specificity controls. The lower chamber is loaded with 29 μl of chemokine (i.e., 0.03 nM C5a) and varying amounts of compound; the top chamber contains 100,000 U937 or neutrophil cells in 20 μl. The chambers are incubated 1.5 hours at 37° C., and the number of cells in the lower chamber quantified either by direct cell counts in five high powered fields per well or by the CyQuant assay (Molecular Probes), a fluorescent dye method that measures nucleic acid content and microscopic observation.
# The compounds in Table 1, below, were prepared using the methods described above. Characterization data is provided for each compound listed. Activity is provided as follows for the chemotaxis assay using U937 cells as described herein (Example 7): +, 500 nM<IC50; ++, 50 nM<IC50<500 nM; +++, 5 nM<IC50<50 nM; and ++++, IC50<5 nM.
row,SMILES,IC50
1,Cc1cccc(C)c1-n1nc2c(c1-c1ccc(C(N)=O)cc1)CN(C(=O)c1ccc(C(C)(C)C)cc1)C2 [Compound 1.036],> 0.5 µM
2,Cc1cccc(C)c1-n1nc2c(c1-c1ccc(NC(N)=O)cc1)CN(C(=O)OC(C)(C)C)C2 [Compound 1.029],> 0.5 µM
3,"CCc1cccc(CC)c1-n1nc2c(c1-c1cc(F)c(NC(N)=O)cc1F)CN(CC(C)(C)C(F)(F)F)C2(C)C [Compound 1.004, 1-(4-(2-(2,6-diethylphenyl)-6,6-dimethyl-5-(3,3,3-trifluoro-2,2-dimethylpropyl)-2,4,5,6-tetrahydropyrrolo[3,4-c]pyrazol-3-yl)-2,5-difluorophenyl)urea]",< 0.005 µM
4,CCc1cccc(CC)c1-n1nc2c(c1-c1cc(F)c(NC(N)=O)cc1F)CN(Cc1cc(Cl)ccc1Cl)C2(C)C [Compound 1.011],< 0.005 µM
